EP0536419B1, “TRICYCLIC TRIAZOLE DERIVATIVES, PRODUCTION AND USE THEREOF” (TORAY INDUSTRIES, INC., priority 1991, dated 1992)
Counter-ions that a name gives are not always drawn. Like-named read-outs stand apart in the source and are kept apart here.

Key:
PAF receptor = target: T1, PAF receptor (Oryctolagus cuniculus, UniProt G1TEI7); test: Binding test using [3H]-PAF (PAF receptor binding test); parameters: species or system rabbit; settings: rabbit platelet membrane fraction, [3H]-PAF 0.4 nM, 25°C, 60 minutes; read-out: Receptor Binding Inhibition IC50 (converted)
T1 construct: Cell membrane fraction of rabbit platelets was prepared; from tissue; host or cells: rabbit platelets (cell membrane fraction)
Procedure: Binding Test Using [^3H]-PAF (PAF receptor binding test)
Cell membrane fraction of rabbit platelets was prepared in accordance with the method by Hwang et al (Biochemistry; 22; 4756, (1983)). In 10 mM Tris buffer containing 0.25% bovine serum albumin, 50 mg of this membrane fraction was suspended and tritium-labelled PAF [^3H]-PAF; 0.4 nM) and a test compound were added thereto. After incubating the resulting mixture at 25°C for 60 minutes, the mixture was subjected to filtration through a filter paper made of glass fibers. The filter paper was washed with cold Tris buffer three times and then transferred to a vial. A scintillator was added thereto and the dose of radioactivity was measured with a liquid scintillation counter. The inhibition rate (binding ability) of the test compound was calculated according to the following equation and IC50 values were determined by interpolation. Inhibition Rate (%) = {1 - [((A - B))/((C - B))]} x 100 [formula] (wherein A represents amount bound in the presence of the compound, B represents amount bound by non-specific binding which is the dose of [^3H]-PAF bound radioactivity in the presence of 1 µM of PAF, and C represents total amount bound which is the dose of [^3H]-PAF bound radioactivity.
As a control agent, WEB2086 (Japanese Laid-open Patent Application (Kokai) No. 65-176591) disclosed as a PAF-antagonist was used.

rabbit platelets = rabbit platelets (Oryctolagus cuniculus, UniProt G1TEI7); test: in vitro platelet agglutination inhibition test (PAF-induced); format: cell-based; settings: rabbit platelet-rich plasma, PAF final concentration 10 ng/ml, 37°C
Procedure: To determine the PAF-antagonizing property of the compounds, the PAF-induced agglutination of rabbit platelets in vitro is utilized. To obtain platelet-rich plasma (PRP), venous blood is taken from rabbit auricular vein into a plastic centrifugal tube containing 1.0% sodium citrate solution. The ratio of sodium citrate solution to blood is 1:10. The obtained citrate-containing blood is centrifuged at 70 x g (625 rpm) at room temperature for 20 minutes and the PRP in the upper layer is transferred to another plastic tube. The remaining lower layer is further centrifuged at 1500 x g (2800 rpm) for 10 minutes and the platelet poor plasma (PPP) in the upper layer is recovered. The platelet agglutination is measured by using aggregometer commercially available from Niko Bioscience, Inc. An aliquote of the PRP is poured into a cubette for measurement. Immediately thereafter, aspirin, creatinin phosphate and creatinin phosphokinase are added to final concentrations of 0.1 mM, 7 mM and 45 U/ml, respectively. Then a solution of a test compound is added and the resulting mixture is stirred at 37°C for 2 minutes. To the resultant, PAF (final concentration: 10 ng/ml) is added to induce platelet aggregation. The platelet aggregation rate is calculated from the relative maximum value in each aggregation curve taking the transmittance of PPP as the maximum aggregation (100% aggregation). Using the aggregation rate when physiological saline was added as a control, the inhibition rate which was the ratio of the aggregation rate when the test compound was added to the control was calculated and the IC50 values were determined by interpolation.

[1] = read-out: PAF-Induced Platelet Aggregation IC50 (converted)

Chain of rabbit platelets (G1TEI7 1-342): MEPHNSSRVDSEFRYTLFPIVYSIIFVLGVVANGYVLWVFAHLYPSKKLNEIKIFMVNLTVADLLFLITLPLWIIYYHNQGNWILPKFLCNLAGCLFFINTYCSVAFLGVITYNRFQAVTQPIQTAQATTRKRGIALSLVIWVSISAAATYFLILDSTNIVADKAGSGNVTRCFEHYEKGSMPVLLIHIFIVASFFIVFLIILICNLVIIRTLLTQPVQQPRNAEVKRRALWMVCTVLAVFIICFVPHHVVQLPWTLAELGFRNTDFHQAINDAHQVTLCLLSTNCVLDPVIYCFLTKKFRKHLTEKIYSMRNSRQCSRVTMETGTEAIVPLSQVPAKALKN
T1 sequence (G1TEI7 1-342): as above

| SMILES | IC50 (PAF receptor) [nM] | IC50 (rabbit platelets; [1]) [nM] | IC50 (rabbit platelets; read-out: PAF-Induced Platelet Aggregation IC50) [nM] |
| --- | --- | --- | --- |
| COc1cccc(C(O)(c2ccccc2)C2CCN(CCCN3Cc4nnc(C)n4-c4ccccc43)CC2)c1 (stereo not shown) [Compound 133, 4,5-dihydro-1-methyl-5-[3-[4-[hydroxy(3-methoxyphenyl)phenylmethyl]piperidin-1-yl]propyl] [1,2,4]triazolo[4,3-a]quinoxaline] | 32.5 | 120 | – |
| Cc1nnc2n1-c1ccccc1N(CCCN1CCC(=C3c4ccccc4COc4ccccc43)CC1)C2 [Compound 88, 4,5-dihydro-1-methyl-5-[3-[4-(6,11-dihydrodibenzo[b.e]oxepin-11-ylidene)piperidin-1-yl]propyl][1,2,4]triazolo[4,3-a] quinoxaline] | 675 | 1710 | – |
| Cc1nnc2n1-c1ccccc1N(CCCN1CCC(=C(c3ccc(F)cc3)c3ccc(F)cc3)CC1)C2 [Compound 77, 4,5-dihydro-1-methyl-5-[3-[4-[bis(4-fluorophenyl)methylene]piperidin-1-yl]propyl][1,2,4]triazolo[4,3-a] quinoxaline] | 190 | 141 | – |
| Cc1nnc2n1-c1ccccc1N(CCCN1CCC(C(O)(c3ccccc3)c3ccc(N(C)C)cc3)CC1)C2 (stereo not shown) [Compound 131] | 83.8 | 242 | – |
| Cc1nnc2n1-c1ccccc1N(CCCN1CCC(C(O)(c3ccccc3)c3cccs3)CC1)C2 (stereo not shown) [Compound 129] | 340 | 340 | – |
| Cc1nnc2n1-c1ccccc1N(CCCN1CCC(C(O)(c3cccs3)c3cccs3)CC1)C2 [Compound 127] | 152 | 455 | – |
| CCn1cc(C2CCN(CCCN3Cc4nnc(C)n4-c4ccccc43)CC2)c2ccccc21 [Compound 64, 4,5-dihydro-1-methyl-5-[3-[4-(1-ethyl-3-indolyl)piperidin-1-yl]propyl][1,2,4]triazolo[4,3-a] quinoxaline fumaric acid salt] | 806 | 2800 | – |
| COc1cccc(C(=C2CCN(CCCN3Cc4nnc(C)n4-c4ccccc43)CC2)c2ccccc2)c1 [Compound 140, 4,5-dihydro-1-methyl-5-[3-[4-[(3-methoxyphenyl)phenylmethylene]piperidin-1-yl]propyl] [1,2,4]triazolo[4,3,a]quinoxaline] | 11.9 | 475 | – |
| Cc1nnc2n1-c1ccccc1N(CCCN1CCC(c3noc4ccccc34)CC1)C2 [Compound 80, 4,5-dihydro-1-methyl-5-[3-[4-(1,2-benzisoxazol-3-yl)piperidin-1-yl]propyl][1,2,4]triazolo[4,3-a] quinoxaline] | 770 | 103 | – |
| CCCc1nnc2n1-c1ccccc1N(CCCN1CCC(c3c[nH]c4ccccc34)CC1)C2 [Compound 53, 4,5-dihydro-1-propyl-5-[3-[4-(3-indolyl)piperidin-1-yl]propyl] [1,2,4]triazolo[4,3-a]quinoxaline] | 3300 | 3960 | – |
| COc1cccc(C(O)(c2cccc(OC)c2)C2CCN(CCCN3Cc4nnc(C)n4-c4ccccc43)CC2)c1 [Compound 135, 4,5-dihydro-1-methyl-5-[3-[4-[hydroxybis(3-methoxyphenyl)methyl]piperidin-1-yl]propyl] [1,2,4]triazolo[4,3-a]quinoxaline] | 37.9 | 1590 | – |
| Cc1nnc2n1-c1ccc(Cl)cc1N(CCCN1CCC(c3c[nH]c4ccccc34)CC1)C2 [Compound 65, 7-chloro-4,5-dihydro-1-methyl-5-[3-[4-(3-indolyl)piperidin-1-yl]propyl][1,2,4]triazolo[4,3-a]quinoxaline] | 10400 | 4340 | – |
| Cc1cccc(C(O)(c2cccc(C)c2)C2CCN(CCCN3Cc4nnc(C)n4-c4ccccc43)CC2)c1 [Compound 134, 4,5-dihydro-1-methyl-5-[3-[4-[hydroxybis(3-tolyl)methyl]piperidin-1-yl]propyl][1,2,4]triazolo[4,3-a]quinoxaline] | 9.58 | 97.8 | – |
| Cc1nnc2n1-c1ccccc1N(CCCN1CCC(C(=O)c3ccccc3)CC1)C2 [Compound 128, 4,5-dihydro-1-methyl-5-[3-(4-benzoylpiperidin-1-yl)propyl] [1,2,4]triazolo[4,3-a]quinoxaline] | 1520 | 4090 | – |
| Cc1nnc2n1-c1ccccc1N(CCCN1CC=C(c3c[nH]c4ccccc34)CC1)C2 [Compound 63, 4,5-dihydro-1-methyl-5-[3-[1,2,3,6-tetrahydro-4-(3-indolyl)pyridin-1-yl]propyl] [1,2,4]triazolo[4,3-a]quinoxaline] | – | – | 10400 |

Further lines, with some results ahead:

| IC50 (PAF receptor) [nM] | IC50 (rabbit platelets; [1]) [nM] | SMILES | IC50 (rabbit platelets; read-out: PAF-Induced Platelet Aggregation IC50) [nM] |
| --- | --- | --- | --- |
| 50.4 | 38.6 | Cc1nnc2n(CCCN3CCC(OC(c4ccccc4)c4ccccc4)CC3)c3ccccc3n12 [Compound 200, 3-methyl-9-[3-[4-(diphenylmethoxy)piperidin-1-yl]propyl]-9H-[1,2,4]triazolo[4,3-a]benzimidazole fumaric acid salt] | – |
| 132 | 2200 | Cc1nnc2n1-c1ccccc1N(CCCN1CCC(=C(c3cccc(Cl)c3)c3cccc(Cl)c3)CC1)C2 [Compound 155, 4,5-dihydro-1-methyl-5-[3-[4-[bis(3-chlorophenyl)methylene]piperidin-1-yl]propyl] [1,2,4]triazolo[4,3,a]quinoxaline] | – |
| 198 | 145 | Cc1cccc(C(=C2CCN(CCCN3Cc4nnc(C)n4-c4ccccc43)CC2)c2ccccc2)c1 [Compound 160, 4,5-dihydro-1-methyl-5-[3-[4-[phenyl(3-tolyl)methylene]piperidin-1-yl]propyl] [1,2,4]triazolo[4,3,a]quinoxaline] | – |
| 67.5 | 173 | Cc1cccc(C(=C2CCN(CCCN3Cc4nnc(C)n4-c4ccccc43)CC2)c2cccc(C)c2)c1 [Compound 147, 4,5-dihydro-1-methyl-5-[3-[4-[bis(3-tolyl)methylene]piperidin-1-yl]propyl] [1,2,4]triazolo[4,3,a]quinoxaline] | – |
| 178 | 372 | Cc1nnc2n1-c1ccccc1N(CCCN1CCC(=C(c3ccccc3)c3cccc(Cl)c3)CC1)C2 [Compound 154, 4,5-dihydro-1-methyl-5-[3-[4-[(3-chlorophenyl)phenylmethylene]piperidin-1-yl]propyl] [1,2,4]triazolo[4,3,a]quinoxaline] | – |
| 249 | 747 | Cc1nnc2n1-c1ccccc1N(CCCN1CCC(=C(c3ccccc3)c3cccs3)CC1)C2 [Compound 164, 4,5-dihydro-1-methyl-5-[3-[4-[phenyl(2-thienyl)methylene]piperidin-1-yl]propyl] [1,2,4]triazolo[4,3,a]quinoxaline] | – |
| 54.1 | 597 | COc1ccc(C(=C2CCN(CCCN3Cc4nnc(C)n4-c4ccccc43)CC2)c2ccc(OC)cc2)cc1 [Compound 148, 4,5-dihydro-1-methyl-5-[3-[4-[bis(4-methoxyphenyl)methylene]piperidin-1-yl]propyl] [1,2,4]triazolo[4,3,a]quinoxaline] | – |
| 1980 | 80.8 | CCCc1nnc2n(CCCN3CCC(c4c[nH]c5ccccc45)CC3)c3ccccc3n12 [Compound 194, 3-propyl-9-[3-[4-(3-indolyl)piperidin-1-yl]propyl]-9H-[1,2,4]triazolo[4,3-a]benzimidazole fumaric acid salt] | – |
| 2910 | 5150 | Cc1nnc2n(CCCN3CCC(c4c[nH]c5ccccc45)CC3)c3cc(Cl)ccc3n12 [Compound 205, 3-methyl-7-chloro-9-[3-[4-(3-indolyl)piperidin-1-yl]propyl]-9H-[1,2,4]triazolo[4,3-a]benzimidazole] | – |
| 820 | 1520 | Cc1nnc2n1-c1ccccc1N(CCCN1CCC(=C(c3cccs3)c3cccs3)CC1)C2 [Compound 165, 4,5-dihydro-1-methyl-5-[3-[4-[bis(2-thienyl)methylene]piperidin-1-yl]propyl] [1,2,4]triazolo[4,3,a]quinoxaline] | – |
| 75 | 586 | Cc1ccc2[nH]cc(C3CCN(CCCn4c5ccccc5n5c(C)nnc45)CC3)c2c1 [Compound 197, 3-methyl-9-[3-[4-(5-methyl-3-indolyl)piperidin-1-yl]propyl]-9H-[1,2,4]triazolo[4,3-a]benzimidazole] | – |
| 74.7 | 411 | COc1cccc(C(=C2CCN(CCCN3Cc4nnc(C)n4-c4ccccc43)CC2)c2cccc(OC)c2)c1 [Compound 143, 4,5-dihydro-1-methyl-5-[3-[4-[bis(3-methoxyphenyl)methylene]piperidin-1-yl]propyl] [1,2,4]triazolo[4,3,a]quinoxaline] | – |
| 206 | 1080 | Cc1nnc2n1-c1ccccc1N(CCCN1CCC(=C(c3ccccc3)c3ccc(Cl)cc3)CC1)C2 [Compound 149, 4,5-dihydro-1-methyl-5-[3-[4-[(4-chlorophenyl)phenylmethylene]piperidin-1-yl]propyl] [1,2,4]triazolo[4,3,a]quinoxaline] | – |
| 152 | 937 | Cc1nnc2n1-c1ccccc1N(CCCN1CCC(=C(c3ccc(Cl)cc3)c3ccc(Cl)cc3)CC1)C2 [Compound 150, 4,5-dihydro-1-methyl-5-[3-[4-[bis(4-chlorophenyl)methylene]piperidin-1-yl]propyl] [1,2,4]triazolo[4,3,a]quinoxaline] | – |
| 162 | 952 | COc1ccc(C(=C2CCN(CCCN3Cc4nnc(C)n4-c4ccccc43)CC2)c2ccccc2)cc1OC [Compound 142, 4,5-dihydro-1-methyl-5-[3-[4-[(3,4-dimethoxyphenyl)phenylmethylene]piperidin-1-yl]propyl] [1,2,4]triazolo[4,3,a]quinoxaline] | – |
| 1810 | 4320 | Cc1nnc2n(CCCN3CCC(=C4c5ccccc5C=Cc5ccccc54)CC3)c3ccccc3n12 [Compound 206, 3-methyl-9-[3-[4-(5H-dibenzo[a,d]cyclohepten-5-ylidene)piperidin-1-yl]propyl]-9H-[1,2,4]triazolo[4,3-a]benzimidazole] | – |
